Test results reported in patent publication US20210290742A1, “METHODS OF USING LYSINE DEACETYLASE (KDAC) INHIBITION TO GENERATE ANTIGEN SPECIFIC MEMORY T CELL RESPONSES FOR DURABLE IMMUNOTHERAPY” (ARIZONA BOARD OF REGENTS ON BEHALF OF THE UNIVERSITY OF …, priority 2018, published 2021).

Assays:
[1] = system: TCR proximal signaling (Lck, Zap70, PKCθ phosphorylation); experiment: Western blot of early TCR signaling proteins (p-Lck, p-Zap70, p-PKCθ) in antigen stimulated CD8+ T cells; format: cell-based, murine; conditions: TSA pre-treatment 30 minutes 2.5 ng/ml, vs Ag alone
Experimental: (§1) Lysates from naïve OT-1 cells served as a control (N). Cell lysates were prepared at 0, 15, 60, or 120 minutes post-stimulation and analyzed for p-LcK^Tyr394, p-Zap70, p-PKCe and β-tubulin levels by Western blot analysis. […] The normalized values at indicated time-points are plotted. […] Naïve (shaded histograms, antigen alone (solid line histogram) and antigen plus TSA (histogram indicated by arrow). Error bars are the standard error of mean (SEM) values obtained from three independent experiments. Naïve OT-1 T cells were pre-treated with TSA for 30 minutes and then stimulated with Ag (microspheres bearing H-2K^b/cognate 8 amino acid peptide/B7-1), (h: hour: N: Naïve; A: Ag; A+T: Ag+TSA).
(§2) Examples 1-0 were obtained from a murine transgenic model, from which in vitro stimulated naïve cells were isolated from TCR transgenic mice (OT-1/Rag -/-). In brief, the CD8+ T cells obtained from nave TCR transgenic mice (OT-1/Rag -/-) mice were stimulated in vitro with latex microspheres on which major histocompatibility complex (MHC) Class I (H-2Kb) dimers bearing 10 nM of cognate peptide (Ag) were immobilized, along with 1 μg/ml of recombinant murine […] (co-stimulation) and 2 ng/ml of rmIL-12 (cytokine) (FIG. 1).
(§3) Western blot analysis was conducted to compare the level of phosphorylation of early TCR signaling proteins, Lck, Zap70, and PKCθ, by TSA pre-treatment of antigen stimulated CD8+ T cells. […] Since, the energy sensitive kinase mTORC1 serves as an integrative node for extracellular signals that initiate naïve CD8+ T cells activation, the mTORC1 activity was assessed by measuring the phosphorylation state of the mTORC1 target ribosomal […] (p-S6) by intracellular flow cytometry (FIG. 3D).

[2] = system: antigen stimulated CD8+ T cells; experiment: Clonal expansion of antigen stimulated CD8+ T cells; format: cell-based, murine; conditions: TSA 2.5 ng/ml
[3] = system: antigen stimulated CD8+ T cells; experiment: CD8 expression asymmetry in antigen stimulated CD8+ T cells at 24 h; format: cell-based, murine; conditions: TSA pre-treated, within 24 h, vs Ag alone
Experimental: Results shown are representative of three independent experiments with identical outcomes. (h: hour; hi high; lo; low).
as §2
Accumulating evidence implicates a deterministic role for cellular asymmetry in antigen induced CD8+ T cells division and functional maturation. The KDACi-mediated reduced TCR signaling and mTOR activity were examined to determine their effect on the induction of inherent asymmetry produced in antigen stimulated CD8+ T cells (FIGS. 4A-4D). […] This could be attributed to the lower threshold of early activation/TCR signaling cues available to the TSA primed CD8+ T cells.

[4] = system: antigen stimulated CD8 High and CD8 Low T cells; experiment: mTORC1 activity, cell cycle and proliferation of FACS sorted CD8 High and CD8 Low cells at 48 h; format: cell-based, murine; conditions: total 48 hours
Experimental: Gating strategies and growth profiles of antigen alone (Ag) or TSA induced antigen (Ag+TSA) at 48 hours are shown for CD8 High and CD8 Low populations. Ag and Ag+TSA CD8+ T-cell cultures were FACS sorted on the basis of CD8α expression. […] Solid line histograms represent Ag or Ag+TSA CD8 or High cells and shaded histograms are unstimulated naïve CD8+ T cells. […] Solid line histograms represent Ag or Ag+TSA CD8 Low or High cells and shaded histograms are unstimulated naïve CD8+ T cells. […] Error bars are the standard error of mean (SEM) values obtained from three independent experiments. (h: hour; hi: high; lo: low).
as §2
To determine the implications of the TSA-mediated tuned percentage of CD8 expression on the growth profile, of these cells, the 24 hours Ag and Ag # TSA CD8+ T cells were separated by FACS sorting on the basis of their CD8 expression (FIGS. 5A-5H).

[5] = system: naïve CD8+ (OT-I) T cells; experiment: Antigen-induced early activation of naïve CD8+ (OT-I) T cells, CD69/CD62L surface staining by flow cytometry; format: cell-based, murine; conditions: pre-treatment with TSA 2.5 ng/ml, antigen stimulation 4 hours, vs antigen alone
Experimental: KDAC inhibition with TSA at 2.5 ng/ml differentially regulates early activation phenotype of antigen stimulated CD8+ T cells. […] Naïve cells (control) are presented in shaded histograms, and antigen stimulated cells (Ag) are shown by the solid line histogram. […] The results shown are representative of five independent experiments with identical outcomes. (N: Naîve; A; Ag; A+T: Ag+TSA).
(§4) Examples 1-0 were obtained from a murine transgenic model, from which in vitro stimulated naïve cells were isolated from TCR transgenic mice (OT-1/Rag -/-). […]
Cognate antigen presented by MHC Class 1 to irate CD8+ T cells in the context of co-stimulation and cytokine leads to rapid (2-4 hours) increases in CD69 expression and decreases in CD62L, which indicate antigen induced early T cell activation response. To characterize early activation of T cells, naïve CD8+(OT-I) T cells were reacted with antigen (Ag; latex microspheres bearing H-2Kb-Fc+/8 amoni acid cognate peptide/rmB7-1) in vitro for 4 hours, cell surface was stained for […] and CD69 expression and evaluated by flow cytometry. […]

Human Jurkat T cells = experiment: Early CD69 expression on stimulated Jurkat T cells; format: cell-based; conditions: TSA 10 ng/ml, anti-CD3/anti-CD28 stimulation, 2 and 4 hours
Experimental: Human Jurkat T Cells were incubated with anti-CD3/anti-0028 (Ag) in the presence or absence of TSA 10 ng/ml) or anti-CD45/CD28 (unstimulated) antibody mated chamber slides for indicated time points. The cells were harvested, counted and stained for CD69. […] FIGS. 10C and 10D show the percentage (% CD69) and their relative Mean Fluorescence intensity (MFI) at 2 and 4 hours, respectively (h: hour).
(§5) Examples 9-10 were obtained from human Jurkat cell line. Jurkat T cells were […]

mTORC1 = mTORC1 activity by intracellular flow cytometry of pS6K in antigen stimulated CD8+ T cells; format: cell-based, murine; conditions: TSA pretreatment, 4 and 8 hours post-antigen stimulation of naïve OT-1 T cells
Experimental: as §1, §4, §3

[6] = system: IL-2 gene expression in Human Jurkat cells; experiment: qPCR analysis of antigen-induced IL-2 gene expression in Jurkat T cells; format: cell-based; conditions: anti-CD3/anti-CD28 stimulated Jurkat T cells, 30 min to 16 h, presence vs absence of TSA
Experimental: IL-2 gene expression is shown in FIG. 11 in stimulated Jurkat T cells in presence or absence of ISA. Cells were incubated on the anti-CD3/anti-CD28 (stimulatory) or anti-CD45 (non-stimulatory) antibody coated chamber slides for 30 min to 16 h, then the total RNA was extracted and performed qPCR analysis of 1L-2 expression. Data shown are the mean fold change of ±SD of three independent experiments. Error bars represent standard deviations. *, statistically significant (p<0.05) and **, p=0.0071 with respect to the values obtained in the presence of TSA. ns, non-significant. (h: hour).
as §5

For `CC(/C=C/C(=O)NO)=C\[C@@H](C)C(=O)c1ccc(N(C)C)cc1` [TSA, Trichostatin A], the “phosphorylation of Zap70” value ([1]; 60 minutes) was “reduction”, the “phosphorylation of PKCθ” value ([1]; 120 minutes) was “reduction” and the “phosphorylation of Lck” value ([1]; by 15 minutes) was “dampened”. For the same molecule, the clonal expansion [2] was “reduces clonal expansion”, the “proportion of cells with increased expression of CD8” value [3] was “lesser proportion of cells to have increased expression of CD8 as compared to Ag alone” and the “mTORC1 activity (S6Kp) in CD8 Hi cells” value ([4]; Ag+TSA CD8 Hi vs Ag alone CD8 Hi) was “higher”. The “cell cycle phase of CD8 High cells” value ([4]; Ag+TSA CD8 High vs Ag CD8 Hi) was “enter S phase, comparable to the Ag CD8 Hi cells”, the “cell cycle phase of CD8 Low cells” value ([4]; Ag+TSA CD8 Low vs Ag CD8 Low) was “retained in the G0-G1 phase of cell cycle and do not enter the S phase” and the “mTORC1 activity (S6Kp) in CD8 Low cells” value ([4]; Ag+TSA CD8 Low vs Ag CD8 Low) was “reduced”. The CD62L shedding [5] was “increases CD62L shedding”, the CD69 expression [5] was “reduces antigen dose dependent CD69 expression” and the “early antigen stimulation (CD69 expression)” value (Human Jurkat T cells) was “dampens early antigen stimulation of Jurkat T cells”. For the same molecule, the “mTORC1 activity (S6Kp)” value (mTORC1) was “dampened mTORC1 activity” and the IL-2 gene expression [6] was “reduces IL-2 gene expression”.
